# Test results taken from ChEMBL document CHEMBL5543121, “Drug Repurposing of ACT001 to Discover Novel Promising Sulfide Prodrugs with Improved Safety and Potent Activity for Neutrophil-Mediated Antifungal Immunotherapy” (J Med Chem, 2024).
# Calls of active or inactive are those of the source. The rule behind the calls is not given here.
# What was measured:
# [1] = system: Candida albicans; assay: Antifungal activity against candida albicans SC5314 infected in mouse assessed as reduction in fungal burden in kidney at 200 mg/kg, po administered on day 1 and 3; type: functional, organism-based; conditions: time 1-3 day
# [2] = system: Polymorphonuclear neutrophil; assay: Inhibition of fungal curdlan induced CXCL1 protein expression in mouse polymorphonuclear neutrophils at 40 uM incubated for 4 hrs by ELISA; type: functional, cell-based
# [3] = Induction of apoptosis in mouse neutrophils assessed as live cells at 20 uM incubated for 16 hrs by Annexin V-FITC/PI staining based flow cytometry analysis (reference value: 46.6%); type: toxicity, cell-based, Neutrophil; conditions: read-out: Activity
# [4] = Induction of apoptosis in mouse neutrophils assessed as live cells at 40 uM incubated for 16 hrs by Annexin V-FITC/PI staining based flow cytometry analysis (reference value: 46.6%); type: toxicity, cell-based, Neutrophil; conditions: read-out: Activity
# [5] = Inhibition of fungal curdlan induced PD-L1 expression in mouse neutrophils assessed as reduction in PD-L1 positive Ly6G positive neutrophils incubated for 16 hrs by flow cytometry analysis; type: functional, cell-based; conditions: Neutrophil
# [6] = Permeability of compound in PBS/EtOH (70:30) buffer incubated for 12 hrs by PAMPA-BBB assay; type: ADME; conditions: read-out: permeability
# [7] = AUC (0 to t) in male Sprague-Dawley rat at 10 mg/kg, po by LC-MS/MS analysis; type: ADME, organism-based; conditions: in vivo
# [8] = MRT (0 to t) in male Sprague-Dawley rat at 10 mg/kg, po by LC-MS/MS analysis; type: ADME, organism-based; conditions: in vivo
# [9] = Oral bioavailability in male Sprague-Dawley rat at 10 mg/kg by LC-MS/MS analysis; type: ADME, organism-based; conditions: in vivo
# [10] = Volume of distribution at steady state in male Sprague-Dawley rat at 2 mg/kg, iv by LC-MS/MS analysis; type: ADME, organism-based; conditions: in vivo, read-out: Vdss
# [11] = system: Candida albicans; assay: Induction of neutrophil-mediated antifungal immunity against Candida albicans SC5314 infected in mouse assessed as reduction in PD-L1 positive Ly6G positive neutrophils in kidney at 50 to 100 mg/kg, po administered once a day for 3 days by flow cytometry analysis; type: functional, organism-based; conditions: dose 50-100 mg/kg, time 3.0 day
# [12] = system: Candida albicans; assay: Induction of neutrophil-mediated antifungal immunity against Candida albicans SC5314 infected in mouse assessed as inhibition of CXCL1 protein expression in bone marrow at 50 to 100 mg/kg, po administered once a day for 3 days by ELISA; type: functional, organism-based; conditions: dose 50-100 mg/kg, time 3.0 day
# [13] = system: Candida albicans; assay: Induction of neutrophil-mediated antifungal immunity against Candida albicans SC5314 infected in mouse assessed as inhibition of CXCL2 protein expression in bone marrow at 50 to 100 mg/kg, po administered once a day for 3 days by ELISA; type: functional, organism-based; conditions: dose 50-100 mg/kg, time 3.0 day
# [14] = system: Neutrophil; assay: Induction of neutrophil-mediated antifungal immunity against Candida albicans SC5314 infected in mouse assessed as increase in neutrophil infiltration in kidney at 50 to 100 mg/kg, po administered once a day for 3 days; type: functional, organism-based; conditions: dose 50-100 mg/kg, time 3.0 day
# [15] = system: Candida albicans; assay: Induction of neutrophil-mediated antifungal immunity against Candida albicans SC5314 infected in mouse assessed as reduction in fungal burden in kidneys at 50 to 100 mg/kg, po administered once a day for 3 days; type: functional, organism-based; conditions: dose 50-100 mg/kg, time 3.0 day
# [16] = system: Candida albicans; assay: Induction of neutrophil-mediated antifungal immunity against Candida albicans SC5314 infected in mouse assessed as increase in animal survival rate at 50 to 100 mg/kg, po administered once a day for 3 days; type: functional, organism-based; conditions: dose 50-100 mg/kg, time 3.0 day
# [17] = system: Candida albicans; assay: Antifungal activity against Candida albicans SC5314 assessed as inhibition of fungal growth at 0.25 to 128 ug/ml measured every 3 hrs for 24 hrs by absorbance based analysis; type: functional, organism-based; conditions: dose 0.25-128 µg/ml
# [18] = target: Signal transducer and activator of transcription 3 (Mus musculus) (UniProt P42227); assay: Inhibition of biotinylated ACT001 probe binding to STAT3 in mouse bone marrow neutrophils at 100 uM by pulldown based Western blot analysis; type: cell-based; conditions: Neutrophil
# Chain of Signal transducer and activator of transcription 3 (Mus musculus) (P42227 whole entry): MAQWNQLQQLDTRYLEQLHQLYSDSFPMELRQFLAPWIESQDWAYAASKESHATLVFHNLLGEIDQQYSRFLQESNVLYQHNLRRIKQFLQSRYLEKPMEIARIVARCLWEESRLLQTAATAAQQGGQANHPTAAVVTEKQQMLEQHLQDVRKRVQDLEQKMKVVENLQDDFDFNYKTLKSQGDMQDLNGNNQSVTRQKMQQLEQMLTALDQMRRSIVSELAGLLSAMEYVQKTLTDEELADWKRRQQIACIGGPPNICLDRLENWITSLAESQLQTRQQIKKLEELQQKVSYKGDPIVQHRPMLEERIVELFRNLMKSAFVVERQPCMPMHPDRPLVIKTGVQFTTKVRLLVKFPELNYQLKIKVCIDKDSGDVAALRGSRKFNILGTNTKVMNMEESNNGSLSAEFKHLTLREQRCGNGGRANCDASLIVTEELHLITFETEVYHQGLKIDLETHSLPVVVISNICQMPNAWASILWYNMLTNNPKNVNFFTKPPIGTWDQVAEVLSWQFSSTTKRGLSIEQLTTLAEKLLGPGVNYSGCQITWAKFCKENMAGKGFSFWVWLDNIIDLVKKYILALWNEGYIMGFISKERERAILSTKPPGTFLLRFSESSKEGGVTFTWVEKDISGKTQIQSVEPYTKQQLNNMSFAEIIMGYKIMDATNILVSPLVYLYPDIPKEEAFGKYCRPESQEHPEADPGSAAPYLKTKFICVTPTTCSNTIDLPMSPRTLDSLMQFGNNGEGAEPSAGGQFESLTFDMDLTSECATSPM
# [19] = target: Signal transducer and activator of transcription 3 (Homo sapiens, UniProt P40763); assay: Binding affinity to His-tagged human recombinant STAT3 assessed as dissociation constant by MST assay
# Chain of Signal transducer and activator of transcription 3 (P40763 whole entry): as the sequence (P42227 whole entry) above, with D760E counted along it
# [20] = system: Neutrophil; assay: Effect on STAT3 protein level in curdlan induced mouse bone marrow neutrophils at 40 uM measured upto 60 mins by Western blot analysis; type: functional, cell-based
# [21] = Acute toxicity in C57BL/6 mouse assessed as animal death at 500 mg/kg, po administered as single dose and measured every day for 14 days; type: organism-based; conditions: in vivo, 336 h, time 14 day
# [22] = Subacute toxicity in C57BL/6 mouse assessed as abnormal behavior at 100 mg/kg, po administered daily for 14 days and measured every day; type: organism-based; conditions: in vivo, 336 h, time 14 day
# [23] = Subacute toxicity in C57BL/6 mouse assessed as body weight loss at 100 mg/kg, po administered daily for 14 days and measured every day; type: organism-based; conditions: in vivo, 336 h, time 14 day
# [24] = Acute toxicity in C57BL/6 mouse assessed as change in liver weight at 500 mg/kg, po administered as single dose and measured after 14 days; type: organism-based; conditions: in vivo, 336 h, time 14 day
# [25] = Acute toxicity in C57BL/6 mouse assessed as change in spleen weight at 500 mg/kg, po administered as single dose and measured after 14 days; type: organism-based; conditions: in vivo, 336 h, time 14 day
# [26] = Acute toxicity in C57BL/6 mouse assessed as histopathological changes in liver at 500 mg/kg, po administered as single dose and measured after 14 days; type: organism-based; conditions: in vivo, 336 h, time 14 day
# [27] = Acute toxicity in C57BL/6 mouse assessed as histopathological changes in spleen at 500 mg/kg, po administered as single dose and measured after 14 days; type: organism-based; conditions: in vivo, 336 h, time 14 day
# [28] = Acute toxicity in C57BL/6 mouse assessed as histopathological changes in lung at 500 mg/kg, po administered as single dose and measured after 14 days; type: organism-based; conditions: in vivo, 336 h, time 14 day
# [29] = Acute toxicity in C57BL/6 mouse assessed as histopathological changes in kidney at 500 mg/kg, po administered as single dose and measured after 14 days; type: organism-based; conditions: in vivo, 336 h, time 14 day
# [30] = Subacute toxicity in C57BL/6 mouse assessed as change in heart weight at 100 mg/kg, po administered daily for 14 days; type: organism-based; conditions: in vivo, 336 h, time 14 day
# [31] = Subacute toxicity in C57BL/6 mouse assessed as change in spleen weight at 100 mg/kg, po administered daily for 14 days; type: organism-based; conditions: in vivo, 336 h, time 14 day
# [32] = Subacute toxicity in C57BL/6 mouse assessed as change in lung weight at 100 mg/kg, po administered daily for 14 days; type: organism-based; conditions: in vivo, 336 h, time 14 day
# [33] = Subacute toxicity in C57BL/6 mouse assessed as histopathological changes in liver at 100 mg/kg, po administered daily for 14 days; type: organism-based; conditions: in vivo, 336 h, time 14 day
# [34] = Subacute toxicity in C57BL/6 mouse assessed as histopathological changes in lung at 100 mg/kg, po administered daily for 14 days; type: organism-based; conditions: in vivo, 336 h, time 14 day
# [35] = Acute toxicity in C57BL/6 mouse assessed as effect on urea level in serum at 500 mg/kg, po administered as single dose and measured every day for 14 days; type: organism-based; conditions: in vivo, 336 h, time 14 day
# [36] = Acute toxicity in C57BL/6 mouse assessed as effect on AST level in serum at 500 mg/kg, po administered as single dose and measured every day for 14 days; type: organism-based; conditions: in vivo, 336 h, time 14 day
# [37] = Subacute toxicity in C57BL/6 mouse assessed as effect on urea level in serum at 100 mg/kg, po administered daily for 14 days and measured every day; type: organism-based; conditions: in vivo, 336 h, time 14 day
smiles,measurement,setting,value
C[C@@]1(O)CC[C@]23O[C@@]2(C)CC[C@@H]2[C@H](OC(=O)[C@H]2CS(=O)(=O)c2c(Cl)cccc2Cl)[C@@H]13,Activity,[1],Active
same,inhibition,[2],Active
same,"viability at 16 h, 20 µM",[3],41.4%
same,"viability at 16 h, 40 µM",[4],38%
same,IC50,[5],3.76 µM
same,Papp at 12 h,[6],1.22 ×10⁻⁶ cm/s
same,AUC(0-t),[7],167 ng·h/mL
same,MRT last,[8],1.74 h
same,bioavailability,[9],45.1%
same,Vd,[10],7.46 L/kg
same,Activity,[11],Active
same,Activity,[12],Active
same,Activity,[13],Active
same,Activity,[14],Active
same,Activity,[15],Active
same,Activity,[16],Active
same,Activity,[17],inactive
same,inhibition,[18],Active
same,Kd,[19],0.0905 µM
same,Activity,[20],inactive
same,Activity,[21],Non-Toxic
same,Activity,[22],Non-Toxic
same,Activity,[23],Non-Toxic
same,Activity,[24],Non-Toxic
same,Activity,[25],Non-Toxic
same,Activity,[26],Non-Toxic
same,Activity,[27],Non-Toxic
same,Activity,[28],Non-Toxic
same,Activity,[29],Non-Toxic
same,Activity,[30],Non-Toxic
same,Activity,[31],Non-Toxic
same,Activity,[32],Non-Toxic
same,Activity,[33],Non-Toxic
same,Activity,[34],Non-Toxic
same,Activity,[35],Non-Toxic
same,Activity,[36],Non-Toxic
same,Activity,[37],Non-Toxic
